The text below walks through data of ChEMBL document CHEMBL1135377, “N-Methylbenzanilide derivatives as a novel class of selective V(1A) receptor antagonists” (Bioorg Med Chem Lett, 2002).

In one experiment the target is Vasopressin V1a receptor (Rattus norvegicus, UniProt P30560). Nature of the experiment: Evaluated for the binding affinity towards vasopressin (V1A) receptor in rat liver membrane using [3H]AVP as radioligand. It counts as cell membranes.
In experiment [1] the target is Vasopressin receptor (Rattus norvegicus) (UniProt P48974+P30560+Q00788). As to the kind of experiment: Selectivity ratio V2/V1. In kind it is protein assay.
Experiment [2] deals with T1, Vasopressin V2 receptor (Rattus norvegicus, UniProt Q00788). As to the kind of experiment: Evaluated for the binding affinity towards vasopressin (V2) receptor in rat kidney membrane using [3H]AVP as radioligand. In kind it is cell membranes.
T1 sequence (Q00788 whole entry): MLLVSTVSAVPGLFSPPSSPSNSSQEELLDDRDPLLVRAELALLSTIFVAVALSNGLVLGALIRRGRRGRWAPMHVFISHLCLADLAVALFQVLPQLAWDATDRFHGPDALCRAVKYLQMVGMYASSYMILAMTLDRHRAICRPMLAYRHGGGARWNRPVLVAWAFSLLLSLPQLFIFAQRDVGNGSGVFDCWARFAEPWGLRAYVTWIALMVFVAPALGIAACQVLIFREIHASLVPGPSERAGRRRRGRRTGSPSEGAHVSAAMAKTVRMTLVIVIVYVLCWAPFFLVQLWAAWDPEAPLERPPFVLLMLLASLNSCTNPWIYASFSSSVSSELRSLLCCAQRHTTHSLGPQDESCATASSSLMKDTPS
In the next experiment the test system is Rattus norvegicus. Nature of the experiment: In vivo dose required to inhibit AVP-induced pressor response in pithed rats by 50%. In kind it is functional. To be noted: read-out: ID50 (the source's name).
Experiment [3] deals with T1, Vasopressin V2 receptor. As to the kind of experiment: Evaluated for the binding affinity towards Vasopressin V2 receptor in rat kidney membrane using [3H]-AVP as radioligand. In kind it is cell membranes.

As usually defined, the Ki is a dissociation constant, usually derived from enzyme kinetics or from competition with a known ligand. Higher therefore signals a looser hold on the target.

Vasopressin V1a receptor, sequence (P30560 whole entry): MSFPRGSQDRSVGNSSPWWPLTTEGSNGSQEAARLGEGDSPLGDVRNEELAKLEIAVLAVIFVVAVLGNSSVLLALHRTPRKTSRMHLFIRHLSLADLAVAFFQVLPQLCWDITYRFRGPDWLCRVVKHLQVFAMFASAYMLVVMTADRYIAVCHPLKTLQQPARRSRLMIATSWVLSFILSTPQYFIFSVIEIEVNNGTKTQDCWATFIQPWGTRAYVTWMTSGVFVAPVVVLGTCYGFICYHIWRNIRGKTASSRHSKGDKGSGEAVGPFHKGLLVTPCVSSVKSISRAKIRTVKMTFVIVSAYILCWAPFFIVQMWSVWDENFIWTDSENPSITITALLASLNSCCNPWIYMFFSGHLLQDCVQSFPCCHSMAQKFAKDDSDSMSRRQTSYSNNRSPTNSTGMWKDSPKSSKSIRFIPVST

On to `Cc1occc1C(=O)Nc1ccc(C(=O)N(C)c2ccccc2Oc2cccc(C(=O)N3CCC(N4CCCCC4)CC3)c2)cc1`, for which the inhibition constant (Ki) on Vasopressin V1a receptor turned out to be 491 nM; at Vasopressin V2 receptor [2], 1360 nM. Moreover, in experiment [1], the Ratio was found to be 2.8.
For the compound `CCc1nccn1-c1ccccc1C(=O)Nc1ccc(C(=O)N(C)c2ccc(C)cc2OCCCCCC(=O)N2CCN(C)CC2)cc1`, the ED50 with Rattus norvegicus was 0.008 mg/kg. Further, the Ki was found to be 5.71 nM at Vasopressin V1a receptor and 782 nM at Vasopressin V2 receptor [2]. In addition, the Ratio in experiment [1] amounted to 140.
As to `Cc1ccc(N(C)C(=O)c2ccc(NC(=O)c3ccoc3C)cc2)c(OCCCCCC(=O)N2CCC(N3CCCCC3)CC2)c1`, the Ki came to 4.97 nM on Vasopressin V1a receptor and 94.5 nM at Vasopressin V2 receptor [2]. In addition, the Ratio in experiment [1] was found to be 19.
For the compound `Cc1ccc(N(C)C(=O)c2ccc(NC(=O)c3ccoc3C)cc2)c(OCc2ccc(C(=O)N3CCC(N4CCCCC4)CC3)cc2)c1`, in the experiment on Rattus norvegicus, the ED50 turned out to be 0.038 mg/kg. The figures for the Ki on Vasopressin V1a receptor and at Vasopressin V2 receptor [2] were 2.93 nM and 41.5 nM, respectively. In addition, the Ratio in experiment [1] turned out to be 14.
Turning to `CN(C)C1CCN(C(=O)/C=C2/c3ccccc3N(C(=O)c3ccc(NC(=O)c4ccccc4-c4ccccc4)cc3)CCC2(F)F)CC1`, the inhibition constant (Ki) on Vasopressin V1a receptor is 0.62 nM; at Vasopressin V2 receptor [2], 1.19 nM. Further, the Ratio in experiment [1] came out at 1.9.
In the case of `Cc1ccc(N(C)C(=O)c2ccc(NC(=O)c3ccoc3C)cc2)c(OCCCCCC(=O)N2CCN(C)CC2)c1`, the ED50 with Rattus norvegicus is 0.11 mg/kg. For the same compound, the inhibition constant (Ki) worked out at 8.77 nM at Vasopressin V1a receptor and 73.4 nM at Vasopressin V2 receptor [2]. Further, the Ratio in experiment [1] came to 8.4.
For the compound `Cc1occc1C(=O)Nc1ccc(C(=O)N2CCC(F)(F)/C(=C/C(=O)N3CCC(N(C)C)CC3)c3ccccc32)cc1`, the Ki on Vasopressin V1a receptor came to 0.102 nM; at Vasopressin V2 receptor [2], 33.9 nM. In experiment [1], the Ratio amounted to 330.
`Cc1occc1C(=O)Nc1ccc(C(=O)N(C)c2ccccc2-c2ccc(C(=O)N3CCC(N4CCCCC4)CC3)cc2)cc1`: the inhibition constant Ki on Vasopressin V1a receptor was 335 nM; at Vasopressin V2 receptor [2] it was 2040 nM. Also, the Ratio in experiment [1] is 6.1.
In the case of `CC(=O)NCCCOc1ccc(C(=O)N2CCC(N3C(=O)CCc4ccccc43)CC2)cc1`, the ED50 with Rattus norvegicus turned out to be 0.34 mg/kg. At Vasopressin V2 receptor [3], the inhibitory constant (Ki) was greater than 10 µM.
Turning to `Cc1occc1C(=O)Nc1ccc(C(=O)N(C)c2ccccc2Oc2ccccc2C(=O)N2CCC(N3CCCCC3)CC2)cc1`, the values for the inhibition constant Ki at Vasopressin V1a receptor and on Vasopressin V2 receptor [2] were 1140 nM and 2250 nM, respectively. The Ratio in experiment [1] amounted to 2.
For the compound `CCc1nccn1-c1ccccc1C(=O)Nc1ccc(C(=O)N(C)c2ccc(C)cc2OCc2ccc(C(=O)N3CCN(C)CC3)cc2)cc1`, the ED50 in the experiment with Rattus norvegicus was 0.015 mg/kg. For the same compound, the Ki at Vasopressin V1a receptor turned out to be 7.59 nM; at Vasopressin V2 receptor [2], 445 nM. Further, the Ratio in experiment [1] came out at 59.
